Laboratory results published in patent US4753953A, “Pyridonecarboxylic acid derivatives and antibacterial pharmaceutical compositions thereof” (priority 1985, dated 1988).
≈ marks a conversion by molar mass, not a printed value.

Legend:
Assay in all cases: MIC, in vitro antibacterial activity (standard strains)
[1] = tested on: Bacillus subtilis PCI 219; format: cell-based; conditions: Bacillus subtilis, PCI219; 10^6 cells/ml; Gram +; read-out: MIC
[2] = tested on: Staphylococcus aureus 209 P; format: cell-based; conditions: Staphylococcus aureus, 209P; 10^6 cells/ml; Gram +; read-out: MIC
S. aureus Smith = format: cell-based, Staphylococcus aureus; conditions: Staphylococcus aureus; 10^6 cells/ml; Gram +; read-out: MIC
[3] = tested on: S. aureus IID 670 (Terajima); format: cell-based, Staphylococcus aureus; conditions: Staphylococcus aureus, IID670
S. epidermidis IID 866 = format: cell-based; conditions: Staphylococcus epidermidis, IID866; 10^6 cells/ml; Gram +; read-out: MIC
[4] = tested on: Streptococcus pyogenes (S-8); format: cell-based; conditions: Streptococcus pyogenes
S. pyogenes IID 692 = format: cell-based, Streptococcus pyogenes; conditions: Streptococcus pyogenes, IID692; 10^6 cells/ml; Gram +; read-out: MIC
S. pneumoniae IID 552 = format: cell-based; conditions: Streptococcus pneumoniae, IID552; 10^6 cells/ml; Gram +; read-out: MIC
E. faecalis IID 682 = format: cell-based; conditions: Enterococcus faecalis, IID682
[5] = tested on: Escherichia coli NIHJ JC-2; format: cell-based; conditions: Escherichia coli, NIHJJC2; 10^6 cells/ml; Gram -; read-out: MIC
E. coli ATCC 10536 = format: cell-based, Escherichia coli; conditions: Escherichia coli, ATCC10536; 10^6 cells/ml; Gram -; read-out: MIC
E. coli ML 4707 = format: cell-based, Escherichia coli; conditions: Escherichia coli, ML4707, 10^6 cells/ml; Gram -; Table 1; read-out: MIC
[6] = tested on: Proteus vulgaris IFO 3167; format: cell-based; conditions: Proteus vulgaris, IFO3167; 10^6 cells/ml; Gram -; read-out: MIC
P. mirabilis IID 994 = format: cell-based; conditions: Proteus mirabilis, IID994; 10^6 cells/ml; Gram -; read-out: MIC
[7] = tested on: Morganella morganii IID 602; format: cell-based; conditions: Morganella morganii, IID602; 10^6 cells/ml; Gram -; read-out: MIC
[8] = tested on: Klebsiella pneumoniae KY(GN)6445; format: cell-based; conditions: Klebsiella pneumoniae; 10^6 cells/ml; Gram -; read-out: MIC
K. pneumoniae 1-220S = format: cell-based, Klebsiella pneumoniae; conditions: Klebsiella pneumoniae, 1220S; 10^6 cells/ml; Gram -; read-out: MIC
[9] = tested on: Enterobacter cloacae IID 977; format: cell-based; conditions: Enterobacter cloacae, IID977; 10^6 cells/ml; Gram -; read-out: MIC
[10] = tested on: Citrobacter freundii IID 976; format: cell-based; conditions: Citrobacter freundii, IID976; 10^6 cells/ml; Gram -; read-out: MIC
[11] = tested on: Serratia marcescens IID 618; format: cell-based; conditions: Serratia marcescens, IID618; 10^6 cells/ml; Gram -; read-out: MIC
Shigella sonnei IID 969 = format: cell-based; conditions: Shigella sonnei, IID969; 10^6 cells/ml; Gram -; read-out: MIC
Protocol: Minimal inhibitory concentrations (MICs) were determined in accordance with the method recommended by Japan Society of Chemotherapy.

[12] = tested on: Salmonella enteritidis IID 604; format: cell-based; conditions: Salmonella enterica; 10^6 cells/ml; Gram -; read-out: MIC
[13] = tested on: Pseudomonas aeruginosa V-1; format: cell-based; conditions: Pseudomonas aeruginosa, V1; 10^6 cells/ml; Gram -; read-out: MIC
P. aeruginosa IFO 12689 = format: cell-based, Pseudomonas aeruginosa; conditions: Pseudomonas aeruginosa, IFO12689; 10^6 cells/ml; Gram -; read-out: MIC
P. aeruginosa IID 1210 = format: cell-based, Pseudomonas aeruginosa; conditions: Pseudomonas aeruginosa, IID1210; 10^6 cells/ml; Gram -; read-out: MIC
P. maltophilia GIFU 2491 = format: cell-based; conditions: Stenotrophomonas maltophilia, GIFU2491; 10^6 cells/ml; Gram -; read-out: MIC
[14] = tested on: Yersinia enterocolitica IID 981; format: cell-based; conditions: Yersinia enterocolitica, IID981; 10^6 cells/ml; Gram -; read-out: MIC
[15] = tested on: Acinetobacter anitratus IID 876; format: cell-based; conditions: Acinetobacter calcoaceticus, IID876
[16] = tested on: Alcaligenes faecalis 0114002; format: cell-based; conditions: Alcaligenes faecalis, 0114002
[17] = tested on: Bacteroides fragilis GM 7000; format: cell-based; conditions: Bacteroides fragilis, GM7000; 10^6 cells/ml; Gram -; read-out: MIC
B. fragilis 0558 = format: cell-based, Bacteroides fragilis; conditions: Bacteroides fragilis, 0558; 10^6 cells/ml; Gram -; read-out: MIC
B. fragilis 25285 = format: cell-based, Bacteroides fragilis; conditions: Bacteroides fragilis, 25285; 10^6 cells/ml; Gram -; read-out: MIC
F. varium KYA 8501 = format: cell-based; conditions: Fusobacterium varium, KYA8501; 10^6 cells/ml; Gram -; read-out: MIC
[18] = tested on: Clostridium difficile I-E; format: cell-based; conditions: Clostridioides difficile; 10^6 cells/ml; Gram +
C. ramosum = format: cell-based; conditions: Thomasclavelia ramosa; 10^6 cells/ml; Gram +; read-out: MIC

Molecule CCn1cc(C(=O)O)c(=O)c2cc(F)c(N3CCNCC3)cc21 [NFLX, norfloxacin, reference compound] has an MIC [1] of 0.1 µg/mL (≈ 0.313 µM), an MIC [2] of 0.78 µg/mL (≈ 2.44 µM) and an MIC (S. aureus Smith) of 0.78 µg/mL (≈ 2.44 µM). The MIC [3] was 1.56 µg/mL (≈ 4.89 µM), the MIC (S. epidermidis IID 866) was 0.78 µg/mL (≈ 2.44 µM) and the MIC [4] was 1.56 µg/mL (≈ 4.89 µM). It also gave an MIC (S. pyogenes IID 692) of 3.13 µg/mL (≈ 9.8 µM), an MIC (S. pneumoniae IID 552) of 3.13 µg/mL (≈ 9.8 µM) and an MIC (E. faecalis IID 682) of 1.56 µg/mL (≈ 4.89 µM). For the same molecule, the MIC [5] was 0.0563 µg/mL (≈ 0.176 µM), the MIC (E. coli ATCC 10536) was 0.05 µg/mL (≈ 0.157 µM) and the MIC (E. coli ML 4707) was 0.05 µg/mL (≈ 0.157 µM). The MIC [6] was 0.05 µg/mL (≈ 0.157 µM), the MIC (P. mirabilis IID 994) was 0.05 µg/mL (≈ 0.157 µM) and the MIC [7] was 0.05 µg/mL (≈ 0.157 µM). The MIC [8] was 0.05 µg/mL (≈ 0.157 µM), the MIC (K. pneumoniae 1-220S) was 0.1 µg/mL (≈ 0.313 µM) and the MIC [9] was 0.1 µg/mL (≈ 0.313 µM). It also gave an MIC [10] of 0.05 µg/mL (≈ 0.157 µM), an MIC [11] of 0.05 µg/mL (≈ 0.157 µM) and an MIC (Shigella sonnei IID 969) of 0.05 µg/mL (≈ 0.157 µM). For the same molecule, the MIC [12] was 0.05 µg/mL (≈ 0.157 µM), the MIC [13] was 0.39 µg/mL (≈ 1.22 µM) and the MIC (P. aeruginosa IFO 12689) was 0.78 µg/mL (≈ 2.44 µM). For the same molecule, the MIC (P. aeruginosa IID 1210) was 3.13 µg/mL (≈ 9.8 µM), the MIC (P. maltophilia GIFU 2491) was 6.25 µg/mL (≈ 19.6 µM) and the MIC [14] was 0.1 µg/mL (≈ 0.313 µM). It also gave an MIC [15] of 1.56 µg/mL (≈ 4.89 µM), an MIC [16] of 1.56 µg/mL (≈ 4.89 µM) and an MIC [17] of 25 µg/mL (≈ 78.3 µM). It also gave an MIC (B. fragilis 0558) of 25 µg/mL (≈ 78.3 µM), an MIC (B. fragilis 25285) of 25 µg/mL (≈ 78.3 µM) and an MIC (F. varium KYA 8501) of 100 µg/mL (≈ 313 µM). It also gave an MIC [18] of 50 µg/mL and an MIC (C. ramosum) of 50 µg/mL (≈ 157 µM).
